Results as given in ChEMBL document CHEMBL1159288, “Anti-AIDS agents, 21. Triterpenoid saponins as anti-HIV principles from fruits of Gleditsia japonica and Gymnocladus chinensis, and a structure-activity correlation” (J Nat Prod, 1995).

Key:
[1] = system: Human immunodeficiency virus 1; assay: Antiviral activity against HIV1 3B in human H9 cells assessed as inhibition of viral replication after 3 days by p24 antigen capture assay; type: functional, organism-based; settings: Human immunodeficiency virus 1, 3B, H9, 72 h
H9 = assay: Cytotoxicity against human H9 cells after 3 days; type: cell-based; settings: H9, 72 h
[2] = Therapeutic index, ratio of IC50 for human H9 cells to EC50 for HIV1 3B; type: cell-based; settings: H9 cells (cytotoxicity) and HIV-1 3B (antiviral), read-out: TI

Structure (SMILES)	EC50 [1] [µM]	IC50 (H9) [µM]	selectivity ratio [2]
CCCC(=O)O[C@H]1CC[C@]2(C)[C@H]3CC=C4[C@H]5CC(C)(C)CC[C@]5(C(=O)OC)[C@H](O)C[C@@]4(C)[C@]3(C)CC[C@H]2C1(C)C	27	27	1
CC1(C)CC[C@]2(C(=O)O)[C@H](O)C[C@]3(C)C(=CC[C@@H]4[C@@]5(C)CC[C@H](O[C@@H]6O[C@H](CO[C@@H]7OC[C@H](O)[C@H](O)[C@H]7O)[C@@H](O)[C@H](O)[C@H]6O)C(C)(C)[C@@H]5CC[C@]43C)[C@H]2C1	13	50	3.8
CC1(C)C[C@@H]2C3=CC[C@@H]4[C@@]5(C)C[C@H](O)[C@H](O[C@@H]6O[C@H](CO[C@@H]7OC[C@H](O)[C@H](O)[C@H]7O[C@@H]7OC[C@@H](O)[C@H](O)[C@H]7O)[C@@H](O)[C@H](O)[C@H]6O)[C@@](C)(CO)[C@@H]5CC[C@@]4(C)[C@]3(C)C[C@H](O)[C@@]23C[C@@H]1OC3=O	100	> 100	> 1
CCCCC(=O)O[C@H]1CC[C@]2(C)[C@H]3CC=C4[C@H]5CC(C)(C)CC[C@]5(C(=O)OC)[C@H](OC(=O)CCCC)C[C@@]4(C)[C@]3(C)CC[C@H]2C1(C)C	31	54	1.8
CC1(C)C[C@@H]2C3=CC[C@@H]4[C@@]5(C)C[C@H](O)[C@H](O)[C@@](C)(CO)[C@@H]5CC[C@@]4(C)[C@]3(C)C[C@H](O)[C@@]23C[C@@H]1OC3=O	8	40	5
C[C@@H]1O[C@@H](OC[C@H]2O[C@@H](OC(=O)[C@]34CCC(C)(C)C[C@@H]3C3=CC[C@@H]5[C@@]6(C)CC[C@H](O[C@@H]7O[C@H](CO[C@@H]8OC[C@H](O)[C@H](O)[C@H]8O[C@@H]8OC[C@@H](O)[C@H](O)[C@H]8O)[C@@H](O)[C@H](O)[C@H]7O)C(C)(C)[C@@H]6CC[C@@]5(C)[C@]3(C)C[C@H]4O)[C@H](O[C@@H]3O[C@@H](C)[C@H](O[C@@H]4OC[C@@H](O)[C@H](O[C@@H]5OC[C@@H](O)[C@H](O)[C@H]5O)[C@H]4O)[C@@H](O)[C@H]3O)[C@@H](O)[C@@H]2O)[C@H](O)[C@H](O)[C@H]1O	> 100	43	–
COC(=O)[C@]12CCC(C)(C)C[C@@H]1C1=CC[C@@H]3[C@@]4(C)CC[C@H](O[C@@H]5O[C@H](CO[C@@H]6OC[C@H](O)[C@H](O)[C@H]6O[C@@H]6OC[C@@H](O)[C@H](O)[C@H]6O)[C@@H](O)[C@H](O)[C@H]5O)C(C)(C)[C@@H]4CC[C@@]3(C)[C@]1(C)C[C@H]2O	9.9	22	2.2
CC(=O)O[C@H]1CC[C@]2(C)[C@H]3CC=C4[C@H]5CC(C)(C)CC[C@]5(C(=O)O)[C@H](OC(C)=O)C[C@@]4(C)[C@]3(C)CC[C@H]2C1(C)C	2.3	13	5.4
CCCC(=O)O[C@H]1CC[C@]2(C)[C@H]3CC=C4[C@H]5CC(C)(C)CC[C@]5(C(=O)OC)[C@H](OC(=O)CCC)C[C@@]4(C)[C@]3(C)CC[C@H]2C1(C)C	15	> 160	> 11
CCCCC(=O)O[C@H]1CC[C@]2(C)[C@H]3CC=C4[C@H]5CC(C)(C)CC[C@]5(C(=O)OC)[C@H](O)C[C@@]4(C)[C@]3(C)CC[C@H]2C1(C)C	30	180	5.9
CC1(C)CC[C@]2(C(=O)O)[C@H](O)C[C@]3(C)C(=CC[C@@H]4[C@@]5(C)CC[C@H](O[C@@H]6O[C@H](CO[C@@H]7OC[C@H](O)[C@H](O)[C@H]7O[C@@H]7OC[C@@H](O)[C@H](O)[C@H]7O)[C@@H](O)[C@H](O)[C@H]6O)C(C)(C)[C@@H]5CC[C@]43C)[C@H]2C1	> 100	37	–
COC(=O)[C@]12CCC(C)(C)C[C@@H]1C1=CC[C@@H]3[C@@]4(C)CC[C@H](OC(C)=O)C(C)(C)[C@@H]4CC[C@@]3(C)[C@]1(C)C[C@H]2O	5.1	7.6	1.5
CC1(C)CC[C@]2(C(=O)O)[C@H](O)C[C@]3(C)C(=CC[C@@H]4[C@@]5(C)CC[C@H](O)C(C)(C)[C@@H]5CC[C@]43C)[C@H]2C1 [ECHINOCYSTIC ACID]	42	74	–
CC1(C)CC[C@]2(C(=O)O)[C@H](O)C[C@]3(C)C(=CC[C@@H]4[C@@]5(C)CC[C@H](O)C(C)(C)[C@@H]5CC[C@]43C)[C@@H]2C1 [ECHINOCYSTIC ACID]	–	–	1.8
C=C[C@@](C)(O)CC/C=C(\C)C(=O)O[C@H]1[C@H](OC[C@H]2O[C@@H](OC(=O)[C@]34CCC(C)(C)C[C@@H]3C3=CC[C@@H]5[C@@]6(C)CC[C@H](O[C@@H]7O[C@H](CO[C@@H]8OC[C@H](O)[C@H](O)[C@H]8O[C@@H]8OC[C@@H](O)[C@H](O)[C@H]8O)[C@@H](O)[C@H](O)[C@H]7O)C(C)(C)[C@@H]6CC[C@@]5(C)[C@]3(C)C[C@H]4O)[C@H](O[C@@H]3O[C@@H](C)[C@H](O[C@@H]4OC[C@@H](O)[C@H](O[C@@H]5OC[C@@H](O)[C@H](O)[C@H]5O)[C@H]4O)[C@@H](O)[C@H]3O)[C@@H](O)[C@@H]2O)O[C@@H](C)[C@H](O)[C@H]1OC(=O)/C(=C/CC[C@](C)(O)C=C)CO [GLEDITSIA SAPONIN C]	1.1	9.8	8.9
C=C[C@](C)(CC/C=C(\C)C(=O)O[C@H]1C[C@@]2(C(=O)O[C@@H]3O[C@H](CO[C@@H]4O[C@@H](C)[C@H](O)[C@@H](O)[C@H]4O)[C@@H](O)[C@H](O)[C@H]3O[C@@H]3O[C@@H](C)[C@H](O[C@@H]4OC[C@@H](O)[C@H](O[C@@H]5OC[C@@H](O)[C@H](O)[C@H]5O)[C@H]4O)[C@@H](O)[C@H]3O)[C@H](CC1(C)C)C1=CC[C@@H]3[C@@]4(C)C[C@H](O)[C@H](O[C@@H]5O[C@H](CO[C@@H]6OC[C@H](O)[C@H](O)[C@H]6O[C@@H]6OC[C@@H](O)[C@H](O)[C@H]6O)[C@@H](O)[C@H](O)[C@H]5O)[C@@](C)(CO)[C@@H]4CC[C@@]3(C)[C@]1(C)C[C@@H]2O)O[C@@H]1OC[C@H](OC(=O)CC(C)C)[C@H](O[C@@H]2O[C@H](CO)[C@@H](O)[C@H](O)[C@H]2O)[C@H]1O [GYMNOCLADUS SAPONIN G]	2.7	14	5.2
COC(=O)[C@]12CCC(C)(C)C[C@@H]1C1=CC[C@@H]3[C@@]4(C)CC[C@H](O)C(C)(C)[C@@H]4CC[C@@]3(C)[C@]1(C)C[C@H]2O [METHYL ECHINOCYSTATE]	3.1	4.9	1.6
